Assay results reported in US8785649B2, “Ethynylphenylamidine compound or salt thereof, method for producing same, and fungicide for agricultural and horticultural use” (priority 2010, dated 2014).

Columns and labels:
[1] = test system: Wheat scab (Microdochium nivale); assay: Test of inhibition of growth of wheat scab mycelium; format: cell-based; conditions: read-out: inhibition rate (mycelium growth length)
[2] = test system: powdery mildew (Sphaerotheca cucurbitae); assay: Test of effect on cucumber powdery mildew, vaporization properties; format: in vivo; conditions: 100 ppm drug solution dropped on aluminum foil on cucumber first leaf; seven days after inoculation; 2 cm or more = vaporization effect
Description: A 10-mm square piece of aluminum foil was attached with a double-sided tape on the first leaf of cucumber planted in a 7.5-cm-diameter pot. […] The drug solution was added dropwise in […] using a micropipette. After air-drying the drug solution, the leaf was inoculated by spraying with a spore suspension of powdery mildew (Sphaerotheca cucurbitae). Seven days after inoculation, the diameter of a disease development inhibition circle on the cucumber first leaf was measured. The appearance of necrotic lesions on the leaf was examined in comparison with the untreated plot. There was judged to be a vaporization effect when an inhibition circle having a diameter of 2 cm or more was formed around the aluminum foil.

[3] = test system: wheat powdery mildew (Erysiphe graminis); assay: Test of preventive effect on wheat powdery mildew; conditions: wheat seedlings
[4] = treatment concentration 100 ppm

| Compound | Diameter of disease development inhibition circle [2] [cm] | other results |
| --- | --- | --- |
| Cc1cc(N=CN(C)C)c(C)cc1C#CC(C)(C)C [Compound 52, N,N-dimethyl-N′-[2,5-dimethyl-4-(3,3-dimethyl-1-butynyl)phenyl]formamidine] |  | inhibition at 10 ppm [1]: 100% |
| Cc1cc(N=CN(C)C)c(C)cc1C#C[Si](C)(C)C [Compound 59, N,N-dimethyl-N′-[2,5-dimethyl-4-(2-trimethylsilyl-1-ethynyl)phenyl]formamidine] |  | inhibition at 10 ppm [1]: 100% |
| CCN(C)C=Nc1ccc(C#CC(C)(C)C)cc1C [Compound 66, N-ethyl-N-methyl-N′-[2-methyl-4-(3,3-dimethyl-1-butynyl)phenyl]formamidine] |  | inhibition at 10 ppm [1]: 100% |
| CCN(C)C=Nc1ccc(C#C[Si](CC)(CC)CC)cc1C [Compound 69] | 2.75 |  |
| CCN(C)C=Nc1cc(C)c(C#CC(C)(C)C)cc1Cl [Compound 85] | 6.0 |  |
| CCN(C)C=Nc1cc(Cl)c(C#CC(C)(C)C)cc1C [Compound 91] | 6.0 |  |
| CCN(C)C=Nc1cc(Cl)c(C#C[Si](C)(C)C)cc1C [Compound 93] | 6.0 |  |
| CCN(C)C=Nc1cc(C)c(C#CC(C)(C)C)cc1C [Compound 98] | 9.5 |  |
| CCN(C)C=Nc1cc(C)c(C#C[Si](C)(C)C)cc1C [Compound 123, N-ethyl-N-methyl-N′-[2,5-dimethyl-4-(2-trimethylsilyl-1-ethynyl)phenyl]formamidine] | 9.5 | inhibition at 10 ppm [1]: 100%; Preventive value ([3]; treatment concentration 10 ppm): 100; Preventive value ([3]; treatment concentration 20 ppm): 100; Preventive value ([3]; treatment concentration 40 ppm): 100; Preventive value [3, 4]: 100 |
| CCN(C)C=Nc1cc(C)c(C#C[Si](CC)(CC)CC)cc1C [Compound 124] | 3.75 |  |
| CCN(C)C=Nc1cc(C)c(C#C[Si](C)(C)C(C)(C)C)cc1C [Compound 126] | 6.5 |  |
| CCN(C)C=Nc1cc(C)c(C#CC[Si](C)(C)C)cc1C [Compound 127] | 2.0 |  |
| Cc1cc(N=CN2CCCCC2)c(C)cc1C#C[Si](C)(C)C [Compound 147] | 2.5 |  |
| CCN(C)C=Nc1cc(F)c(C#C[Si](C)(C)C)cc1C [Compound 158] | 3.75 |  |
| CCN(C)C=Nc1cc(C)c(C#CC(C)(C)O[Si](C)(C)C)cc1C [Compound 161] | 6.0 |  |
| CCN(C)C=Nc1cc(C)c(C#C[Si](C)(C)C)cc1C.Cl [Compound 162, N-ethyl-N-methyl-N′-[2,5-dimethyl-4-(2-trimethylsilyl-1-ethynyl)phenyl]formamidine hydrochloride] | 8.0 |  |
| CCN(C)C=Nc1cc(C)c(C#C[Si](C)(C)C(C)(C)C)cc1C.Cl [Compound 163] | 8.0 |  |
| Cc1cc(N=CN(C)C(C)C)c(C)cc1C#C[Si](C)(C)C(C)(C)C [Compound 171] | 7.0 |  |
| CCN(C)C=Nc1cc(Cl)c(C#CC(C)(C)C)cc1C.Cl [Compound 172] | 7.0 |  |
| CC1(C)[C@H]2CC[C@]1(CS(=O)(=O)O)C(=O)C2.CCN(C)C=Nc1cc(C)c(C#C[Si](C)(C)C)cc1C [Compound 175] | 7.0 |  |
| CCN(C)C=Nc1cc(F)c(C#C[Si](C)(C)C)cc1C.Cl [Compound 176] | 7.0 |  |
| CCN(C)/C=N/c1ccc(-c2ccc(C(C)(C)C)cc2)cc1C [Reference Compound A] | 0 | Preventive value ([3]; treatment concentration 10 ppm): 10; Preventive value ([3]; treatment concentration 20 ppm): 20; Preventive value ([3]; treatment concentration 40 ppm): 70; Preventive value [3, 4]: 100 |
| CCN(C)/C=N/c1cc(C)c(-c2ccc(C(C)(C)C)cc2)cc1C [Reference Compound B] | 0 | Preventive value ([3]; treatment concentration 10 ppm): 40; Preventive value ([3]; treatment concentration 20 ppm): 70; Preventive value ([3]; treatment concentration 40 ppm): 70; Preventive value [3, 4]: 95 |
| N-ethyl-N-methyl-N′-[2,5-dimethyl-4-(2-trimethylsilyl-1-ethynyl)phenyl]formamidine (+)-camphorsulfonate [Compound 174] | 7.0 |  |
